According to US20240109969A1, “Dosing Regimen for Therapies Comprising Bispecific Anti-EGFR/C-Met Antibodies” (Janssen Biotech, Inc., priority 2022, published 2024):
Entries after “also recorded” stand apart in the source; their conditions may differ.

Key:
P-glycoprotein (P-gp) = P-glycoprotein (P-gp) (Homo sapiens, UniProt P08183); conditions: cited from earlier work
[1] = target: T1, multidrug resistance protein 4 (MRP4) (Homo sapiens, UniProt O15439); conditions: cited from earlier work
T1 sequence (O15439 1-1325): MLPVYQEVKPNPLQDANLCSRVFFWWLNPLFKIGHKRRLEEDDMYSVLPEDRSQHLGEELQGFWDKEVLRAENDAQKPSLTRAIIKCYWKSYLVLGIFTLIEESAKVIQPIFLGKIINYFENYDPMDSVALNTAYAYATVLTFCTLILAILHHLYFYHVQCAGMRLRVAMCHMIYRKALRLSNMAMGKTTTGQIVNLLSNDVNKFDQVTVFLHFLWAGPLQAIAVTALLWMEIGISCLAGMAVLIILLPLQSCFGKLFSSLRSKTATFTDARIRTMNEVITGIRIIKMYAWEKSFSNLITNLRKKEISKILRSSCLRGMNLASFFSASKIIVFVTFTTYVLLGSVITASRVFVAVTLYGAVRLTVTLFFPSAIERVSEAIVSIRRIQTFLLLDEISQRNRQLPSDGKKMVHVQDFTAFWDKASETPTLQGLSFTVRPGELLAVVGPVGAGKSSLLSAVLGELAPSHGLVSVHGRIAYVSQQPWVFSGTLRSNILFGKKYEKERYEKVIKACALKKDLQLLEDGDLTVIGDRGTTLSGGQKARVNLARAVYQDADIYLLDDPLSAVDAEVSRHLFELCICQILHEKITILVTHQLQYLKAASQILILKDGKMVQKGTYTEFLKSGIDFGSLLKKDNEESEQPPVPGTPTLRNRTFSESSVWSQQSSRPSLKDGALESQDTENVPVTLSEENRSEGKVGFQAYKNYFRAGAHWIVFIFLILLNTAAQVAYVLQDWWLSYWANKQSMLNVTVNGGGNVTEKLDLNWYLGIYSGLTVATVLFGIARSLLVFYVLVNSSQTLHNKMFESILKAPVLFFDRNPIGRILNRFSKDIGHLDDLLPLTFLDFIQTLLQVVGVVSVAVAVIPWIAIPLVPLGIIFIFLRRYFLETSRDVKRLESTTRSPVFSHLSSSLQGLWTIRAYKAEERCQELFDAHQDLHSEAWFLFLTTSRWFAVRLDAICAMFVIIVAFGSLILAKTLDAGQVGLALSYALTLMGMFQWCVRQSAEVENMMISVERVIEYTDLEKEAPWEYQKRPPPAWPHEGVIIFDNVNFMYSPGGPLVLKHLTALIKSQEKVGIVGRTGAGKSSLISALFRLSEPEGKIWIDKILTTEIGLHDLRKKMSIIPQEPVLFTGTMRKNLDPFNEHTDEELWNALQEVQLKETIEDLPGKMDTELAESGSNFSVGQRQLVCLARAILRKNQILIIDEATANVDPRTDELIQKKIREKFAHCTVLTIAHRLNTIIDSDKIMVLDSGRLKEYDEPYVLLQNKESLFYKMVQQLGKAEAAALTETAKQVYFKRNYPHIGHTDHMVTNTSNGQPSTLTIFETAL

[2] = target: T2, breast cancer resistance protein (BCRP) (Homo sapiens, UniProt Q9UNQ0); conditions: cited from earlier work
T2 sequence (Q9UNQ0 1-655): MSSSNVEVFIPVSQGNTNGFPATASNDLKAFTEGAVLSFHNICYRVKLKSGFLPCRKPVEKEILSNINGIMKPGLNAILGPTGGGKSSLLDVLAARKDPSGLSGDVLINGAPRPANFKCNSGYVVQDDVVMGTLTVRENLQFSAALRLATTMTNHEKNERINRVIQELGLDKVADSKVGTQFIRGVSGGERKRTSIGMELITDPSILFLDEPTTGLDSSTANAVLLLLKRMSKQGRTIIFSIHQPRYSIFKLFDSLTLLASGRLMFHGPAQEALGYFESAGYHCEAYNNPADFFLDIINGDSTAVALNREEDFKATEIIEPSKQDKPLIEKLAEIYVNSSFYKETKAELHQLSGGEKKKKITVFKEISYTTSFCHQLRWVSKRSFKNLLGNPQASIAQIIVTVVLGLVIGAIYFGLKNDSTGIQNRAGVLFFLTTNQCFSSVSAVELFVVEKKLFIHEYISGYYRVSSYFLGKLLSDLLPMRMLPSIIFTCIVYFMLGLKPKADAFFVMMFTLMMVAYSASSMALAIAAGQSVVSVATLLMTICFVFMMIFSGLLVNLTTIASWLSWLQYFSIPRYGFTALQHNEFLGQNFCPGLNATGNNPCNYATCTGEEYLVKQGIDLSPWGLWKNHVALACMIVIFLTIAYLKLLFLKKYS

[3] = target: T3, Organic Cation Transporter 1 (OCT1) (Homo sapiens, UniProt O15245); conditions: cited from earlier work
T3 sequence (O15245 1-554): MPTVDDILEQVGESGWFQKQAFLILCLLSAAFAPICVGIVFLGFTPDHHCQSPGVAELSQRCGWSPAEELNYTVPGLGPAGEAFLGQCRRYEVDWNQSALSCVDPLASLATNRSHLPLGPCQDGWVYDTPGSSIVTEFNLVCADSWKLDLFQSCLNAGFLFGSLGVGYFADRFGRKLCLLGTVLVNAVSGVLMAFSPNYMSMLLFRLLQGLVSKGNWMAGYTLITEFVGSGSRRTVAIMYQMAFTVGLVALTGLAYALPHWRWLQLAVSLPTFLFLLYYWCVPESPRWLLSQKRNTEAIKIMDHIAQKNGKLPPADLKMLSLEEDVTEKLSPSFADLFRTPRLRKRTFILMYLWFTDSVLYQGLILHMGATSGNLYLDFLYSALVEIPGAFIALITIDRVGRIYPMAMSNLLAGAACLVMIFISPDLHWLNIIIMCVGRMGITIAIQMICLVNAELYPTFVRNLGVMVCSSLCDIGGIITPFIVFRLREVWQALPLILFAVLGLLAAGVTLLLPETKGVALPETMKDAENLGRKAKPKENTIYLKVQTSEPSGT

Chain of P-glycoprotein (P-gp) (P08183 whole entry): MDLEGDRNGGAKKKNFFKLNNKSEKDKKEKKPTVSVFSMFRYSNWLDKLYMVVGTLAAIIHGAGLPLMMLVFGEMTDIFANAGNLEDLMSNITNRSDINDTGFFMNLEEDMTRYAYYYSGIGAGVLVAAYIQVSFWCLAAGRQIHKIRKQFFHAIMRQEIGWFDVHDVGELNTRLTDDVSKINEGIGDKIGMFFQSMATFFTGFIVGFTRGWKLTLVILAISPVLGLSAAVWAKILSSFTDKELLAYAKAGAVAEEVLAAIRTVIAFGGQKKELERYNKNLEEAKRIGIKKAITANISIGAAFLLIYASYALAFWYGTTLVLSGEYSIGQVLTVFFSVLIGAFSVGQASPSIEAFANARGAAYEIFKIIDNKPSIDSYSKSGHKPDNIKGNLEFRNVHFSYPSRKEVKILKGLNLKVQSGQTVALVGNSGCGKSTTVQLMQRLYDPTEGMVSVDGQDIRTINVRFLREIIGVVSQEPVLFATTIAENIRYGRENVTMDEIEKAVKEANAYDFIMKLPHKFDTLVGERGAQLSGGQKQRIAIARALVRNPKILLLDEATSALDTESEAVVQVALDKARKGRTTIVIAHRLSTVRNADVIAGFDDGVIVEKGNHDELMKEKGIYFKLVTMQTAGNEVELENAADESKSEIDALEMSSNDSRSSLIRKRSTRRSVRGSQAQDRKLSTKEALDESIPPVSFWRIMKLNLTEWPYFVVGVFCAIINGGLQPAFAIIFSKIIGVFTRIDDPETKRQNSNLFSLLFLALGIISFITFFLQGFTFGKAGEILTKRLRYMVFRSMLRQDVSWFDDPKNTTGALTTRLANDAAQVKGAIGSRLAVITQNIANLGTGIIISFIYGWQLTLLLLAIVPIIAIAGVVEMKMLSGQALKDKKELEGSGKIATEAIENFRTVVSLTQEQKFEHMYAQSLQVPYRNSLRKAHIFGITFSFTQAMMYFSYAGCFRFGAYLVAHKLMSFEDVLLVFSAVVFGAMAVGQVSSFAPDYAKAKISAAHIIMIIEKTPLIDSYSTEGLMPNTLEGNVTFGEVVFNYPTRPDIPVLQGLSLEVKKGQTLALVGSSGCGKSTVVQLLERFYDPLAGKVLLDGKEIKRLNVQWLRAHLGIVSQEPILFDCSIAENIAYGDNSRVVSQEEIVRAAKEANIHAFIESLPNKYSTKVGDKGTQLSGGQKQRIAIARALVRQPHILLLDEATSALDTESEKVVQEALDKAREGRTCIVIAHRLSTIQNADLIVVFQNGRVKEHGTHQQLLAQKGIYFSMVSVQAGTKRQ

Row | Compound | inhibition of P-gp (P-glycoprotein (P-gp)) | inhibition of MRP4 [1] | inhibition of BCRP [2] | inhibition of OCT1 [3] | impact of chemotherapy on amivantamab exposure (preliminary cycle 1 PK data (n=9), FIG. 3A-C) | amivantamab trough concentration / exposure, Q3W (21-day cycle) versus monotherapy Q2W (28-day cycle, 1050/1400 mg) (preliminary, FIG. 4A-B)
1 | C=CC(=O)Nc1cc(Nc2nccc(-n3cc(CN(C)C)c(-c4ccccc4)n3)n2)c(OC)cc1N1CCOCC1 [Lazertinib, N-(5-(4-(4-((dimethylamino)methyl)-3-phenyl-1H-pyrazol-1-yl)pyrimidin-2-ylamino)-4-methoxy-2-morpholinophenyl)acrylamide] | inhibitor | inhibitor | inhibitor | inhibitor |  | 
2 | amivantamab |  |  |  |  | no impact; also recorded: not impacted | Similar
